Reference: patent publication US10087139B2, “3-Phenylisoserine derivative production method” (Toray Fine CHhemicals Co., Ltd., priority 2015, dated 2018)
Blank lines part the entries; values can stand above or below the compound they belong to.

How the values were obtained:
[1] = Solubility of N-protected-3-phenylisoserine in the extraction solvents; assay type: physicochemical; settings: solvent 1,2-dimethoxyethane
[2] = as above; assay type: physicochemical
Procedure: (§1) The same operation as in Example 1 was carried out except that toluene was used instead of tetrahydrofuran as the extraction solvent in the extraction step of Example 1. As a result, (2R,3S)—N-benzoyl-3-phenylisoserine as an intermediate could be hardly extracted into the organic layer. To evaluate the performance of the extraction solvent, solubility of (2R,3S)—N-benzoyl-3-phenylisoserine was investigated for comparison.
as §1, with “cyclopentyl methyl ether” for “toluene”
as §1, with “methyl-tert-butyl ether” for “toluene”
as §1, with “acetonitrile” for “toluene”

[3] = solvent cyclopentyl methyl ether
[4] = solvent methyl-tert-butyl ether

Solubility (20° C.) ([1]; 20° C.): 12.7 wt %
Solubility (40° C.) ([1]; 40° C.): 13.6 wt %
Solubility (20° C.) ([2]; solvent acetonitrile): 2.2 wt %
Solubility (40° C.) ([2]; solvent acetonitrile): 2.9 wt %
Solubility (20° C.) [2, 3]: 0.4 wt %
Solubility (40° C.) [2, 3]: 0.4 wt %
Solubility (20° C.) [2, 4]: 0.2 wt %
Solubility (40° C.) [2, 4]: 0.4 wt %
Solubility (20° C.) ([2]; solvent tetrahydrofuran): 9.2 wt %
Solubility (40° C.) ([2]; solvent tetrahydrofuran): 11.6 wt %
Solubility (20° C.) ([2]; solvent toluene): <0.1 wt %
Solubility (40° C.) ([2]; solvent toluene): <0.1 wt %
Structure (SMILES): O=C(N[C@@H](c1ccccc1)[C@@H](O)C(=O)O)c1ccccc1 [(2R,3S)—N-benzoyl-3-phenylisoserine]

melting point: 183 to 185 °C
Structure (SMILES): COC(=O)[C@H](O)[C@@H](NC(=O)c1ccccc1)c1ccccc1 [Example 1, (2R,3S)—N-benzoyl-3-phenylisoserine methyl ester]

Structure (SMILES): COC(=O)[C@H](O)[C@@H](NC(=O)OC(C)(C)C)c1ccccc1 [Example 2, (2R,3S)—N-tert-butoxycarbonyl-3-phenylisoserine methyl ester]
melting point: 131 to 133 °C

Structure (SMILES): CC(C)(C)OC(=O)NC(c1ccccc1)C(O)C(=O)O (stereo not shown) [N-tert-butoxycarbonyl-3-phenylisoserine]
Solubility (20° C.) ([2]; solvent tetrahydrofuran): 10.1 wt %
Solubility (40° C.) ([2]; solvent tetrahydrofuran): 12.2 wt %
